From article PMC7504818, “Synthetic Analogues of Aminoadamantane as Influenza Viral Inhibitors—In Vitro, In Silico and QSAR Studies” (Molecules, 2020)
Read-outs that look alike come from different tables or passages of the source.

What was measured:
MDCK cells = conditions: for HNTC (μM) MDCK Cells: high-nontoxic concentration; for CC50: read-out: CC50 (μM) MDCK Cells, 50% cytotoxic concentration, confluent MDCK monolayers, 72 h
in vitro [1] = conditions: dog
[2] = tested on: influenza virus A/H3N2, strain Hong Kong 68; assay: Antiviral activity against influenza virus A/H3N2, strain Hong Kong 68 (crystal violet uptake assay in MDCK cells); assay type: cell-based
Method: The synthesized compounds were tested for antiviral activity against the influenza virus A/H3N2, strain Hong Kong 68.
In order to identify new potential antiviral drugs, small amounts of extracts or compounds have to be examined for cytotoxicity and antiviral activity in primary screening using a rapid, easy, inexpensive and highly standardized test system. The cytotoxic and the antiviral effects were quantified using a crystal violet uptake assay allowing automated handling of large numbers of candidate agents. […] Madin-Darby Kanine Kidney Cells (MDCK) cells were seeded at 2 × 10^4 cells per well in 96-well flat-bottomed microtiter plates (Falcon 3075). The cytotoxicity of the test compounds was determined on 2-day-old confluent MDCK cell monolayers grown in the internal 60 wells (5% CO2, 37 °C). After removal of the growth medium, two-fold dilutions of the compounds in 100 µL test medium were added and incubated at 37 °C in a 5% CO2 atmosphere for 72 h. Cells in six wells without compound treatment served as basic controls. The Dynex Immuno Assay System (DIAS, Guernsey, UK) developed for automated ELISA techniques was applied to wash gently, stain, measure and analyze the viability of the cell monolayers in cytotoxic, as well as antiviral assays. The staining procedure undertaken with crystal violet was based on the principles described by Nain et al. for the determination of the cytotoxic activity of TNF-α [20]. At first, the supernatant was aspirated and the cell monolayers were washed three times with […] physiological sodium chloride solution to remove dead cells. Secondly, the cells were fixed and stained in one step with 50 µL of 0.03% crystal violet (w/v) in 20% methanol for 10 min. […] Then the optical density of individual wells was quantified spectrophotometrically at 540/630 nm and analyzed with the DIAS. Cell viability was evaluated as the percentage of the mean value of optical density, resulting from the six cell controls, which was set 100%. The 50% cytotoxic concentrations (CC50) were calculated from the mean dose–response curves of three assays each with two parallels.
To exclude non-specific antiviral activities of test compounds, their cytotoxic effects have to be determined not only on confluent cell monolayers but also on proliferating cell cultures in the primary antiviral screening. The cytotoxicity and the growth inhibition of compounds were quantified using an automated crystal violet staining procedure and the electronic cell analyzer system CASY 1, respectively, on day 3 after compound application. The 50% cytotoxic and growth inhibition concentrations were calculated from the mean dose–response curve (3.9 through 1000 µg mL^−1; dilution factor 2) of three separate experiments each with two parallels in the indicated cell lines.

in vitro [3] = assay type: in vitro ADME; conditions: human, plasma
Method: The separation of glycyl-rimantadine (4b) and Ala-rimantadine (4a) (internal standard, IS) was performed on an ultra-high-performance liquid chromatography (UHPLC) system (Bruker Daltonics, Germany), utilizing an RP Kinetex C18 column 100 mm × 2.1 mm, 2.6 μm, with a proguard column 2.1 mm (Phenomenex, USA). The mobile phase was composed of formic acid 0.1% in water (A) and acetonitrile (B). Gradient elution was chosen for the analysis, at a constant flow rate of 0.25 mL min^−1 and the following gradient profile: initial phase (B) concentration of 5% until 0.3 min, then increased to 80% within 1.2 min, kept constant for 1 min at 80% and then reduced to 5% at 2.6 min, until the end of the run at 4 min. The temperature in the autosampler and the column oven was maintained at 15 °C and 40 °C, respectively. The sample injection volume was set to 5 μL.
The EVOQ Elite ER (Bruker Daltonics, Germany) triple quadrupole mass spectrometer was operated in positive ionization electrospray mode (ESI) in multiple reaction monitoring (MRM) for the detection of glycyl-rimantadine (4b) and IS. The optimal MRM transitions for monitoring the analytes were determined and set as follows: m/z 237.1 → 163.2, 237.1 → 75.5 and 237.1 → 81.4 for glycyl-rimantadine and 251.1 → 163.2, 251.1 → 89.4 and 251.1 → 180.2 for the IS. The optimum ESI parameters were determined and set as follows: spray voltage at 4500 V; heated probe gas flow at 50 units; heated probe temperature at 150 °C; cone gas flow at 20 units; cone temperature at 300 °C and nebulizer gas flow at 50 units. The control of the LC and the MS, as well as the data acquisition, was performed using the MSWS software, version 8.2.1 (Bruker Datonics, Germany). […]
The in vitro plasma stability of glycyl-rimantadine (4b) was conducted by LC–MS/MS. […] The glycyl-rimantadine (4b) concentration was calculated via the standard calibration curve that was designed by plotting the area of the conjugate versus the IS area against the nominal concentration of the calibration standards. […]

[4] = Influenza A virus, H3N2, MDCK, read-out: IC50 (μM) Against A/Hong Kong/68
[5] = influenza A/H3N2 Hong Kong/68, read-out: IC50 (μM) Against A/Hong Kong/68

In the case of `CC(C)C(N)C(=O)NC(C)C12CC3CC(CC(C3)C1)C2` (stereo not shown) [Compound 4h, Val-Rim], the “HNTC (μM) MDCK Cells” value (MDCK cells) is reported as 10.2 µM and the CC50 (in vitro [1]) is reported as 70.3 µM.

With `CC(NC(=O)CCNC(=N)N)C12CC3CC(CC(C3)C1)C2` (stereo not drawn) [Compound 6i, Gua-β-Ala-Rim] the “HNTC (μM) MDCK Cells” value (MDCK cells) was over 100 µM and the CC50 (MDCK cells) was over 100 µM.

In the case of `CC(N)C(=O)NC(C)C12CC3CC(CC(C3)C1)C2` (stereo not shown) [Compound 4a, Ala-Rimantadine], the “HNTC (μM) MDCK Cells” value (MDCK cells) is reported as 14.65 µM, the IC50 [2, 4] is reported as 1.53 µM and the CC50 (in vitro [1]) is reported as over 100 µM.

With `CC(C)CC(N)C(=O)NC(C)C12CC3CC(CC(C3)C1)C2` (stereo not shown) [Compound 4d, Leu-Rim] the “HNTC (μM) MDCK Cells” value (MDCK cells) was 11.66 µM, the IC50 [2, 4] was 0.75 µM and the CC50 (in vitro [1]) was over 100 µM.

For `CC(NC(=O)[C@H](C)NC(=N)N)C12CC3CC(CC(C3)C1)C2` (stereo partly drawn) [Compound 6a, Gua-Ala-Rim], the “HNTC (μM) MDCK Cells” value (MDCK cells) was over 100 µM, the CC50 (MDCK cells) was over 100 µM and the IC50 [2, 5] was 41.9 µM.

In the case of `CCC(C)C(N)C(=O)NC(C)C12CC3CC(CC(C3)C1)C2` (stereo not shown) [Compound 4c, Ile-Rim], the “HNTC (μM) MDCK Cells” value (MDCK cells) is reported as 5.33 µM and the CC50 (in vitro [1]) is reported as 58.4 µM.

In the case of `CC(NC(=O)C(N)Cc1ccccc1)C12CC3CC(CC(C3)C1)C2` (stereo not shown) [Compound 4e, Phe-Rim], the “HNTC (μM) MDCK Cells” value (MDCK cells) is reported as 4.75 µM and the CC50 (in vitro [1]) is reported as 21.9 µM.

For `CC(C)[C@H](NC(=N)N)C(=O)NC12CC3CC(CC(C3)C1)C2` [Compound 7h, Gua-Val-Am], the “HNTC (μM) MDCK Cells” value (MDCK cells) was over 100 µM, the CC50 (MDCK cells) was over 100 µM and the IC50 ([2]; Table 4, against A/Hong Kong/68, QSAR numbering, read-out: IC50) was 17.1 µM. The Active ([2]; experimental class, active if IC50 < 30 μM) was “Yes (Active compound only if IC50 < 30 μM)” and the IC50 [2, 5] was 17.1 µM.

With `CC(NC(=O)[C@H](Cc1ccc(O)cc1)NC(=N)N)C12CC3CC(CC(C3)C1)C2` (stereo partly drawn) [Compound 6j, Gua-Tyr-Rim] the “HNTC (μM) MDCK Cells” value (MDCK cells) was 36.69 µM, the CC50 (MDCK cells) was over 100 µM and the IC50 [2, 5] was 8.19 µM.

For `CC(NC(=O)CN)C12CC3CC(CC(C3)C1)C2` (stereo not shown) [Compound 4b, glycyl-rimantadine], the “HNTC (μM) MDCK Cells” value (MDCK cells) was 13.89 µM, the IC50 [2, 4] was 0.11 µM and the CC50 (in vitro [1]) was over 100 µM. For the same molecule, the remaining at 6 h, 1.58 µg/mL (in vitro [3]) was 97.5%, the remaining at 12 h, 1.58 µg/mL (in vitro [3]) was about 91% and the remaining at 24 h, 1.58 µg/mL (in vitro [3]) was 83.7%.

With `CC(NC(=O)C(N)Cc1ccc(O)cc1)C12CC3CC(CC(C3)C1)C2` (stereo not shown) [Compound 4j, Tyr-Rimantadine] the “HNTC (μM) MDCK Cells” value (MDCK cells) was 9.97 µM, the IC50 [2, 4] was 0.52 µM and the CC50 (in vitro [1]) was over 100 µM.
